Assay results reported in patent US7838005B2, “Treatment of insulin resistance by administering an acid-sensing ion channel 3 inhibitor” (priority 2007, dated 2010).

Experiments:
[1] = system: aging ASIC3+/+ mice; experiment: Glucose tolerance test (GTT) with ASIC3 blockers in aging mice; type: in vivo; settings: salicylic acid 14 mg/kg or APETx2 0.23 mg/kg injected intraperitoneally with glucose 1.5 mg/g after overnight fast
Description: (§1) ASIC3−/− mice were generated as described in Chen et al., Proc. Natl. Acad. Sci. USA 99, 8992-8997, 2002. Congenic 129 mice were derived from breeding ASIC3 chimera with female 129S2/SvPasCrl wild type mice. All mice were raised in a 12:12-h light-dark cycle at 25° C. and 40% to 70% humidity. All experiments involved use of female mice in different age groups. The animals were bred in a specific pathogen-free facility and cared for in accordance with the Guide for the Use of Laboratory Animals (National Academy Press, Washington D.C.). The experimental protocol was approved by the animal use committee of Academia Sinica.
(§2) Mice of 9, 16, or 25 weeks old were tested for glucose tolerance (GTT) and those of 18 or 27 weeks old for insulin tolerance (ITT). For GTT, the mice fasted overnight then were injected with glucose intraperitoneally at 1.5 mg/g body weight. For ITT, the mice were given free access to food and injected with insulin intraperitoneally at 0.5 mU/g body weight. The glucose levels were measured in blood withdrawn from the tail vein. To study effects of ASIC3 blockers, salicylic acid (14 mg/kg) or APETx2 (0.23 mg/kg) were injected with glucose or insulin intraperitoneally.
(§3) To test whether ASIC3 selective blockers could reverse age-dependent glucose intolerance and insulin resistance, we tested the effects of salicylic acid and APETx2 in the aging mouse groups. […]

[2] = system: aging ASIC3+/+ mice; experiment: Insulin tolerance test (ITT) with ASIC3 blockers in aging mice; type: in vivo; settings: salicylic acid 14 mg/kg or APETx2 0.23 mg/kg injected intraperitoneally with insulin 0.5 mU/g
Description: as §1, §2, §3

[3] = target: T1, WAT-expressed ASIC3 (Mus musculus, UniProt Q6X1Y6); experiment: Whole-cell patch recording of acid-evoked currents in cultured SVF adipose cells; type: cell-based; settings: pH 5.0 evoked currents, SVF adipose cells from mice 8 to 10 weeks old, voltage-clamp
T1 construct: Whole cell recordings were made of primary culture adipose cells; endogenous in cells; host or cells: primary stromal-vascular fraction (SVF) adipose cells from periovarian white adipose tissue of female mice
T1 sequence (Q6X1Y6 1-530): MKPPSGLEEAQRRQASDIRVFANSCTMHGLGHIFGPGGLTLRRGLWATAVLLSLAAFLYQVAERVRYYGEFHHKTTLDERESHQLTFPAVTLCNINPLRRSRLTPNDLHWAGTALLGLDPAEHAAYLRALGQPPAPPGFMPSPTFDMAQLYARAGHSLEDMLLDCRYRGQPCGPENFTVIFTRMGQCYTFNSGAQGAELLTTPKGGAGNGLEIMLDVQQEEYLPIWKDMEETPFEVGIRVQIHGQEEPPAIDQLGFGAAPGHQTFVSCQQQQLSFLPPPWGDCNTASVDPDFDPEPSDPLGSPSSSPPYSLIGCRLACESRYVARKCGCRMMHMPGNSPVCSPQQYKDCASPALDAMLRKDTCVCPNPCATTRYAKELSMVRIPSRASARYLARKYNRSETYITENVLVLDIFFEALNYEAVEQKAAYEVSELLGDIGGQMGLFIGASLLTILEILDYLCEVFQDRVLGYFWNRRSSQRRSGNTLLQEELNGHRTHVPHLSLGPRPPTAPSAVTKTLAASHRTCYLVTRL
Description: Fat pads of periovarian white adipose tissue (WAT) were isolated from female mice. One gram of the isolated fat pad was digested with 2 mg/ml of collagenase type VIII (Sigma) in 4 ml Dulbecco's modified Eagle's medium (DMEM) at 37° C. for 1 hour. Then, the digested tissues were centrifuged at 200×g for 5 minutes at 4° C. The supernatant, which contains mature adipocytes, was collected for RNA isolation. The cell pellet, the stromal-vascular fraction (SVF), consisted of mesenchynal cells (adipoblasts) and immature adipocytes (adipocyte precursors and postadipocytes) (Van, The adipocyte precusor cell. In: New perspectives in adipose tissue:structure, function, and development. Butterworths, Borough Green, England, chapt. 15, 353-382, 1985). The SVFs were collected for RNA isolation or re-suspended for cell culture in DMEM containing 10% fetal calf serum and antibiotics. SVF cells were plated at a concentration of 10^5 cells per glass cover slide (12 mm in diameter) and maintained at 37° C. in 5% humidified carbon dioxide. The cultured cells then underwent whole-cell patch recording in 5 days. […]
To determine whether WAT-expressed ASIC3 is functional, we applied whole-cell patch recording to examine the acid-evoked currents in cultured SVF cells isolated from mice 8 to 10 weeks old. […]

[4] = target: T2, IKKβ (Mus musculus, UniProt O88351); settings: salicylate 120 mg/kg/day, continual treatment, rodents; cited from earlier work
T2 construct: host or cells: rodents (in vivo)
T2 sequence (O88351 1-757): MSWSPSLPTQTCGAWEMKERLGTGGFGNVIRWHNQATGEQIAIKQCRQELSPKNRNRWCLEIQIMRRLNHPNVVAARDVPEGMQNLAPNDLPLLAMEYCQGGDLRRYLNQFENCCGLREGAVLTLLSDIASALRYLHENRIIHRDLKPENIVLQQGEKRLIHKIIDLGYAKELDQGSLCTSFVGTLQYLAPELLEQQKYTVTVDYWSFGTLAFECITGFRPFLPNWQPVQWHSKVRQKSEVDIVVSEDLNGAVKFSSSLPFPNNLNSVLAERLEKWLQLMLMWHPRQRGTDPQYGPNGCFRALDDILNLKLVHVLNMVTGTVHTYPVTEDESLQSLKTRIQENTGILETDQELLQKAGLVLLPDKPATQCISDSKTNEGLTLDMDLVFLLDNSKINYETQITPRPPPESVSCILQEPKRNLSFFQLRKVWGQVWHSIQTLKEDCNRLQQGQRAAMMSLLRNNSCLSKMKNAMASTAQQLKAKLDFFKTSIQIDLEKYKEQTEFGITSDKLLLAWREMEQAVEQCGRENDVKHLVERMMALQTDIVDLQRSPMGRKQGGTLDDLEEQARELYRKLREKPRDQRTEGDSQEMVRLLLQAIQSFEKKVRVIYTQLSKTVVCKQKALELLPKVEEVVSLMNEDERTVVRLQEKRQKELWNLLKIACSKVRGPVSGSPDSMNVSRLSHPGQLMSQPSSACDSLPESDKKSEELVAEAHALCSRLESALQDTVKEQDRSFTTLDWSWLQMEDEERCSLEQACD

[5] = system: rodents; settings: salicylate 120 mg/kg/day, continual treatment; cited from earlier work

Molecule | effect on age-dependent glucose tolerance (GTT) [1] | effect on insulin tolerance test / insulin sensitivity (ITT) [2] | sensitivity of acid-induced inward currents to blocker [3] | effect on IKKβ activity [4] | effect on obesity- and diet-induced insulin resistance [5]
APETx2 | effectively reverse the age-dependent effect of glucose tolerance | significantly enhance the insulin sensitivity | sensitive | – | –
O=C(O)c1ccccc1O [salicylic acid] | reverse in part the age-dependent effect of glucose tolerance | not affect insulin tolerance test | sensitive | disrupted IKKβ activity | reversed obesity- and diet-induced insulin resistance
